Measurements: PubChem BioAssay AID624027 (Broad Institute, 2012)
The source made the active and inactive calls.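 How the source made its calls: active means decreasing luminescence curve with half-maximal concentration at most twice the top tested dose, in every replicate run; inconclusive means replicate test runs disagree in their calls; inactive means every replicate run inactive, including responses in the opposite direction.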

These compounds were tested against Glycogen synthase kinase-3 beta (Homo sapiens) (UniProt P49841) (assay: GSK3beta inhibitors at high ATP, SAR follow-up, mechanism study for GSK3beta inhibitor project, biochemical, varied ATP levels, ADP-Glo luminescence, dry powder samples (AID 624027)). Conditions: GST-GSK3beta kinase, 100 uM ATP.
Glycogen synthase kinase-3 beta (Homo sapiens), sequence (P49841 whole entry, looked up): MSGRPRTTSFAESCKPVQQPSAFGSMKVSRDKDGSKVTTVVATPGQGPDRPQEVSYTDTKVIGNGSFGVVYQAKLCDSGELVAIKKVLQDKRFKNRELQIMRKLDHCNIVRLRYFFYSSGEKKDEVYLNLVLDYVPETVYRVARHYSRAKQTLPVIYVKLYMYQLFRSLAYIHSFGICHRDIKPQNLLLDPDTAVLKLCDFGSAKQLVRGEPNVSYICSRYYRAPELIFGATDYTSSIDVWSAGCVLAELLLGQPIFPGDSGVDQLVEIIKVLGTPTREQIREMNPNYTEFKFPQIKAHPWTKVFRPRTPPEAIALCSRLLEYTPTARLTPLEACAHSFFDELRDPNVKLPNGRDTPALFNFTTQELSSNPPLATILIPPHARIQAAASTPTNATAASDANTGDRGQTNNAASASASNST
Work on `Cc1[nH]nc2c1C(c1cccc3nonc13)C1=C(CC(C)(C)CC1=O)N2` (centres undefined) yielded an AC50 of 231 nM. In the case of `Cc1[nH]nc2c1[C@@H](c1ccccc1C(F)(F)F)C1=C(CC(C)(C)CC1=O)N2`, the AC50 was 231 nM. With `CC1(C)CC(=O)C2=C(C1)Nc1n[nH]c(C(F)(F)F)c1C2c1ccccc1F` (centres undefined) the AC50 was 932 nM. For `COc1ccccc1[C@@H]1C2=C(CC(C)(C)CC2=O)Nc2n[nH]c(C(F)(F)F)c21`, the AC50 was 143 nM. `Cc1[nH]nc2c1C(c1ccc(C#N)cc1)C1=C(CC(C)(C)CC1=O)N2` (centres undefined) showed an AC50 of 39800 nM. With `Cc1[nH]nc2c1[C@H](c1ccccc1C(F)(F)F)C1=C(CC(C)(C)CC1=O)N2` the AC50 was 31900 nM. Compound `CC1(C)CC(=O)C2=C(C1)Nc1n[nH]c(C(F)(F)F)c1C2(C)c1ccccc1` (centres undefined) has an AC50 of 41 nM. `CC1(C)CC(=O)C2=C(C1)Nc1n[nH]c(C(F)(F)F)c1C2c1ccccc1` (centres undefined) gave an AC50 of 103 nM. `CC1(C)CC(=O)/C(=C\c2ccccc2C(F)(F)F)C(=Nc2cc(C(F)(F)F)[nH]n2)C1` gave an AC50 of 25200 nM. Compound `CC1(C)CC(=O)C2=C(C1)Nc1n[nH]c(C(F)(F)F)c1C2c1cc(F)ccc1OC(F)(F)F` (centres undefined) has an AC50 of 2340 nM. `CC1(C)CC(=O)/C(=C\c2cccc(F)c2C(F)(F)F)C(=Nc2cc(C(F)(F)F)[nH]n2)C1` gave an AC50 of 13200 nM. Work on `CC1(C)CC(=O)C2=C(C1)Nc1n[nH]c(C(F)(F)F)c1C2c1cc(F)ccc1C(F)(F)F` (centres undefined) yielded an AC50 of 209 nM.

Same assay, conditions: GST-GSK3beta kinase, 100 uM ATP, at 46 µM (top of the series)
With `CN(C)Cc1cn(-c2ccccc2)nc1-c1ccccc1` the “activity change, negative = inhibition” value was “inactive”. In the case of `CNC(=O)c1cn(-c2ccccc2)nc1-c1ccc(OC)cc1`, the “activity change, negative = inhibition” value was “inactive”.
